In patent US10736922B2, “High telomerase activity bone marrow mesenchymal stem cells, methods of producing the same and pharmaceuticals and treatment methods based thereon” (UNIVERSITY OF SOUTHERN CALIFORNIA, priority 2010, dated 2020):
Blank lines part the entries; values can stand above or below the molecule they belong to.

Columns and labels:
NO production in BMMSCs = assay: Measurement of nitric oxide production in BMMSC culture supernatant; format: cell-based, mouse
Experimental: (§1) Inhibitor treatment. tBMMSCs and BMMSCs were treated with 1 mM L-NMMA (Cayman Chemical) or 0.2 mM 1400 W (Cayman Chemical) to inhibit total NOS or iNOS, respectively. Aspirin 50 μg/ml (TAT) and telomerase inhibitor III (1 μM; EMD Chemicals) were used to activate and suppress telomerase activity in cultured BMMSCs, respectively. CHIRON 99021 (1 or 10 μM; Chiron Corporation) and Dickkopf 1 (DKK1, 10 ng/ml, R&D Systems) were used as an activator and inhibitor to regulate β catenin levels in BMMSCs.
Measurement of nitric oxide production. BMMSCs (0.2×10^6/well) were cultured on 24-well plates with or without cytokines (IFNγ, 25 ng/ml; IL-1β, 5 ng/ml, R&D Systems) and chemicals (L-NMMA, 1 mM; 1400W, 0.2 mM; aspirin, 50 μg/ml; Telomerase inhibitor III, 1 μM; CHIRON 99021, 1 or 10 μM; DKK1, 10 ng/ml) at indicated concentration and days. The same chemical concentration was also used in combination treatment such as DKK and aspirin or Telomerase inhibitor and CHIRON99021. The supernatant from each culture was collected and measured nitric oxide concentration using Total Nitric Oxide and Nitrate/Nitrite Parameter Assay kit (R&D Systems) according to manufacturer's instruction.

iNOS = target: T1, iNOS (Mus musculus, UniProt P29477); assay: Western blot of iNOS expression; format: cell-based; conditions: BMMSCs and tBMMSCs, L-NMMA 1 mM or 1400W 0.2 mM, 3 days
T1 construct: endogenous in cells; host or cells: primary BMMSCs and tBMMSCs
T1 sequence (P29477 1-1144): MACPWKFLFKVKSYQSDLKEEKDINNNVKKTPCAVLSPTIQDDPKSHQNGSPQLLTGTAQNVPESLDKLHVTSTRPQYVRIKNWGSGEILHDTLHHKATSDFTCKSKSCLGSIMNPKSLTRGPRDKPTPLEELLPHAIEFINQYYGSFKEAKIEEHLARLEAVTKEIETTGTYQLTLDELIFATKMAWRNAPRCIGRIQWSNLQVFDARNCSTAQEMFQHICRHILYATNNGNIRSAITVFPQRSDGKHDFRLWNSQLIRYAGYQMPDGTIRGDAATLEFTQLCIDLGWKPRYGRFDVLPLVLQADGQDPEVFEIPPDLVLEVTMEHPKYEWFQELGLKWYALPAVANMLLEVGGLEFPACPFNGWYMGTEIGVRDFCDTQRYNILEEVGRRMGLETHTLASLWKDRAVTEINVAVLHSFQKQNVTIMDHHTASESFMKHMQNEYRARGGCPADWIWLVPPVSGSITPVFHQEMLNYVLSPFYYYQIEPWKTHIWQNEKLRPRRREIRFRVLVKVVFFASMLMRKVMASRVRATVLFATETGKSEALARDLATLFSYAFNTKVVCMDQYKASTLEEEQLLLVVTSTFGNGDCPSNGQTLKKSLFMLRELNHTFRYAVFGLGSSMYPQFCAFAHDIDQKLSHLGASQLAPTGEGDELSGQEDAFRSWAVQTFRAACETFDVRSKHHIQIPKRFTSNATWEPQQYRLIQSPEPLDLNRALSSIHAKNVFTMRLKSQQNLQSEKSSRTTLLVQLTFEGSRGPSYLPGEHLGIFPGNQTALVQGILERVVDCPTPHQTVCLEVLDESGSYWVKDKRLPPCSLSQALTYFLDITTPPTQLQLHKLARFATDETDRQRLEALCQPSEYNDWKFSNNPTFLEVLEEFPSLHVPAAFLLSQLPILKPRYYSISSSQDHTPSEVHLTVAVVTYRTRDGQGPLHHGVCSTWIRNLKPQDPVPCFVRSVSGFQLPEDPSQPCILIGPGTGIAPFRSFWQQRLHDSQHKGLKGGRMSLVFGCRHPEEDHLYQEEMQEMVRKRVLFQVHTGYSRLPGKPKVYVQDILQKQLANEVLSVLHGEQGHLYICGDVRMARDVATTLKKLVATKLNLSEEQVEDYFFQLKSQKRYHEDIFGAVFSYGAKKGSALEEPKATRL
Experimental: (§2) Western blotting analysis. […] of protein were used and SDS-PAGE and western blotting were performed according to standard procedures. β-actin on the same membrane served as the loading control.
as §1

activated SP cells [1] = assay: Cell survival assay, Transwell co-culture with activated splenocytes (cell counting kit-8); format: cell-based, mouse; conditions: for tBMMSC / BMMSC effect on cell viability of activated SP cells: L-NMMA 1 mM or 1400W 0.2 mM in co-culture
Experimental: (§3) Cell apoptosis and cell survival assay. Transwell system (Corning) was used for co-culture experiments. 0.2×10^6 of tBMMSCs or BMMSCs were seeded on each lower chamber. In the upper chambers, activated splenocytes (1×10^6/chamber), which were pre-stimulated with plate-bounded anti CD3ε antibody (5 μg/ml) and soluble anti CD28 antibody (2 μg/ml) for 3 days, were loaded. Both chambers were filled with a complete medium containing Dulbecco's Modified Eagle Medium (DMEM, Lonza) with 10% heat-inactivated FBS, 50 μM 2-mercaptoethanol, 10 mM HEPES, 1 mM sodium pyruvate (Sigma), 1% non-essential amino acid (Cambrex), 2 mM L-glutamine, 100 U/ml penicillin and […] streptomycin. To measure the splenocyte viability, cell counting kit-8 (Dojindo Molecular Technoloies) were used. For apoptosis of splenocyte analysis, Annexin V-PE apoptosis detection kit I (BD Bioscience) were used and analyzed on FACS^Calibur (BD Bioscience).

activated SP cells [2] = assay: Cell apoptosis assay, Transwell co-culture with activated splenocytes (Annexin V/7AAD); format: cell-based, mouse; conditions: for number of early and late apoptotic SP cells in tBMMSC and regular BMMSC groups: L-NMMA 1 mM or 1400W 0.2 mM in co-culture
Experimental: as §3

CD4^+CD25^+Foxp3^+ Tregs = assay: In vitro CD4+CD25+Foxp3+ Tregs induction; format: cell-based, mouse; conditions: L-NMMA 1 mM or 1400W 0.2 mM
Experimental: In vitro CD4^+CD25^+Foxp3^+Tregs induction. CD4^+CD25^− T-lymphocytes (1×10^6/well), collected by CD4^+CD25^+ regulatory T-cell Isolation kit (Miltenyi Biotec), were pre-stimulated with plate bounded anti CD3E antibody (5 μg/ml) and soluble anti CD28 antibody (2 μg/ml) for 3 days. These activated T-lymphocytes were loaded on 0.2×10^6 of BMMSC or tBMMSC cultures with recombinant human TFGβ1 (2 μg/ml) (R&D Systems) and recombinant mouse IL2 (2 μg/ml) (R&D Systems). After 3 days, cells in suspension were collected and stained with anti CD4-PerCP, anti CD8a-FITC, anti CD25-APC antibodies (each 1 μg) for 45 min on ice under dark condition. And then cells were stained with anti Foxp3-PE antibody (1 μg) using Foxp3 staining buffer kit (eBioscience) for cell fixation and permeabilization. The cells were analyzed on FACS^Calibur (BD Bioscience).

telomerase [3] = assay: Telomerase activity, TeloTAGGG Telomerase PCR ELISA kit, mouse BMMSC cultures; format: cell-based
Experimental: as §1
Measurement of telomerase activity. The Telomerase activity was measured using TeloTAGGG Telomerase PCR ELISA kit (Roche).

active β-catenin = assay: Western blot of active beta-catenin in BMMSCs; format: cell-based, mouse
Experimental: as §2, §1

telomerase [4] = assay: Telomerase activity in human BMMSCs, Telo TAGGG Telomerase PCR ELISA kit; format: cell-based; conditions: aspirin in culture medium at 2.5 μg/ml or 50 μg/ml for 1 week
[5] = system: telomerase reverse transcriptase (TERT); assay: Western blot of TERT expression; format: cell-based, mouse; conditions: aspirin treatment, one week
Experimental: as §2

[6] = system: CD73, Sca-1, Oct4, SSEA4, CD34, CD45; assay: Flow cytometric analysis of mesenchymal stem cell surface molecules; format: cell-based, mouse; conditions: aspirin treatment
Experimental: Flow cytometric analysis of mesenchymal stem cell surface molecules. BMMSCs or pBMMSCs (0.2×10^6) were incubated with 1 µg of PE conjugated antibodies or isotype-matched control IgGs (Southern Biotech) at 4° C. for 45 min. Samples were analyzed by FACS^Calibur flow cytometer (BD Bioscience). For dual color analysis, the cells were treated with PE conjugated and FITC conjugated antibodies or isotype-matched control IgGs (each 1 […]g). The cells were analyzed on FACS^Calibur (BD Bioscience).

[7] = L-NMMA 1 mM or 1400W 0.2 mM, 3 days
[8] = BMMSCs treated with aspirin (TAT) prior to co-culture

Molecule: CC(=N)NCc1cccc(CN)c1 [1400W]
NO production in BMMSCs (NO production in BMMSCs; [7]): inhibit NO production | iNOS expression (iNOS): inhibited | tBMMSC / BMMSC effect on cell viability of activated SP cells (activated SP cells [1]): significantly block tBMMSC, but not regular BMMSC, induced cell viability | inhibition of early apoptotic SP cells, tBMMSC group compared to regular BMMSC group (activated SP cells [2]; 1400W 0.2 mM): significantly greater inhibition | number of early and late apoptotic SP cells in tBMMSC and regular BMMSC groups (activated SP cells [2]): significantly reduced | BMMSC- and tBMMSC-induced up-regulation of Tregs (CD4^+CD25^+Foxp3^+ Tregs): inhibit

Molecule: CNC(=N)NCCC[C@H](N)C(=O)O [L-NMMA, NG-monomethyl-L-arginine]
NO production in BMMSCs (NO production in BMMSCs; [7]): inhibit NO production | iNOS expression (iNOS): inhibited | tBMMSC / BMMSC effect on cell viability of activated SP cells (activated SP cells [1]): significantly block tBMMSC, but not regular BMMSC, induced cell viability | number of early and late apoptotic SP cells in tBMMSC and regular BMMSC groups (activated SP cells [2]): significantly reduced | BMMSC- and tBMMSC-induced up-regulation of Tregs (CD4^+CD25^+Foxp3^+ Tregs): inhibit

Molecule: DKK1: Wnt inhibitor, Dickkopf 1 (R&D Systems)
aspirin (TAT)-induced telomerase activity in BMMSCs (telomerase [3]; DKK1 10 ng/ml, DKK-TAT): capable of blocking | aspirin-induced NO production in BMMSCs (NO production in BMMSCs; DKK1 10 ng/ml added prior to aspirin (TAT) treatment, three days): significantly block | activated β-catenin level in BMMSCs (active β-catenin; DKK1 10 ng/ml): reducing activated β-catenin level

Now from value to molecule, other results behind:

Telomerase activity in BMMSCs (telomerase [3]; Chiron treatment, 7 days): elevated telomerase activity
Molecule: Cc1cnc(-c2cnc(NCCNc3ccc(C#N)cn3)nc2-c2ccc(Cl)cc2Cl)[nH]1 [Chiron 99021]
NO production in BMMSCs (NO production in BMMSCs; Chiron 1 and 10 μM, 1 week): up-regulated NO production in BMMSCs in a dose-dependent manner | active beta-catenin in BMMSCs (active β-catenin; Chiron 99021, 7 days): elevation of active beta-catenin in a dose-dependent manner

Telomerase activity in BMMSCs (telomerase [3]; regular BMMSCs cultured with aspirin (50 μg/ml) for one week): significantly elevated
Molecule: CC(=O)Oc1ccccc1C(=O)O [aspirin]
Telomerase activity in human BMMSCs (telomerase [4]): significantly increased level of telomerase activity | NO production in BMMSCs (NO production in BMMSCs; regular BMMSCs cultured with aspirin for one week): significantly elevated | telomerase reverse transcriptase (TERT) expression in BMMSCs [5]: significantly elevated | DKK1-induced down-regulation of activated beta-catenin (active β-catenin; aspirin (TAT) treatment): partially block | CD34 expression in BMMSCs [6]: elevates CD34 expression | BMMSC-induced reduction of activated SP cell viability (activated SP cells [1]; [8]): promote BMMSC-induced reduction of activated SP cell viability | BMMSC-induced early and late apoptosis of activated SP cells (activated SP cells [2]; [8]): elevation of early and late apoptosis
